Measured values: BindingDB's records for doi:10.1021/jm000130i (Duquesne University, 2000)

Legend:
Dihydrofolate reductase = Dihydrofolate reductase (Lacticaseibacillus casei, UniProt P00381); assay: Inhibitory concentration against Lactobacillus casei Dihydrofolate reductase
[1] = target: T1, Bifunctional dihydrofolate reductase-thymidylate synthase (Toxoplasma gondii, UniProt Q07422); assay: Inhibitory concentration against Toxoplasma gondii Dihydrofolate reductase
T1 sequence (Q07422 whole entry): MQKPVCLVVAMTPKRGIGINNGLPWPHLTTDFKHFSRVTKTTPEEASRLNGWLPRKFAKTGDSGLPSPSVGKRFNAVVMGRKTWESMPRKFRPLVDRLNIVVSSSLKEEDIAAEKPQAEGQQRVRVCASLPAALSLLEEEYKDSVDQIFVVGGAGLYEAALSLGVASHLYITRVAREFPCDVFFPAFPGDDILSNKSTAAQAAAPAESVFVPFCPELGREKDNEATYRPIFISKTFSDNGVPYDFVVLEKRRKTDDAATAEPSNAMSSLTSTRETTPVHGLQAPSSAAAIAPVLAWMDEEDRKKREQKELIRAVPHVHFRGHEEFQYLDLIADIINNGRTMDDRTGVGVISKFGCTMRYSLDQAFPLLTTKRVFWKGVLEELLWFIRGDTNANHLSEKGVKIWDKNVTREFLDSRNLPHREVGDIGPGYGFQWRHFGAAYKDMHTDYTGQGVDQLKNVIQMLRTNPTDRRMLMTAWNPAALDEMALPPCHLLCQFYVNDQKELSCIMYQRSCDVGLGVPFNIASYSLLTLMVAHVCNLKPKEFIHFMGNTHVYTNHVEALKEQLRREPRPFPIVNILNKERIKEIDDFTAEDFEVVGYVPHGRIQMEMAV

Sequence of Dihydrofolate reductase (P00381 whole entry): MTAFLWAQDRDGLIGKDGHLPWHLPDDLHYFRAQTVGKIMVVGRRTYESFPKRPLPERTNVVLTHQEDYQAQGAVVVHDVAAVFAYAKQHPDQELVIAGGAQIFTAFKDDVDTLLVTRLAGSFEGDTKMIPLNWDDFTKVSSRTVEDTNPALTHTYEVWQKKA

SMILES: C/C(=C\c1coc2nc(N)nc(N)c12)c1ccc(C(=O)N[C@@H](CCC(=O)O)C(=O)O)cc1
- IC50 (Dihydrofolate reductase): 4.4 µM
- IC50 [1]: 4.4 µM
